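Exposure lasted 48 hours, with cells grown in 96-well plates and compounds tested at five concentrations. At the GI50, growth is halved.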 Active and inactive are the calls of the source. No stated cut-off is given here; in the data, active = GI50 up to about 1.1 µM and inactive = higher.
Legend:
Test in all cases: NCI tumour cell line growth inhibition, 48 h
CAKI-1 = system: CAKI-1
CCRF-CEM = system: CCRF-CEM
DLD-1 = system: DLD-1
HCC 2998 = system: HCC 2998
HL-60 = system: HL-60
IGROV-1 = system: IGROV-1
KM12 = system: KM12
M14 = system: M14
NCI-H23 = system: NCI-H23
NCI-H460 = system: NCI-H460
OVCAR-8 = system: OVCAR-8
SF-539 = system: SF-539
SK-MEL-28 = system: SK-MEL-28
SK-OV-3 = system: SK-OV-3
UACC-257 = system: UACC-257
UACC-62 = system: UACC-62
UO-31 = system: UO-31
LOX IMVI = system: LOX IMVI

Measured: GI50

C[C@]12CCC(=O)C=C1CC[C@@H]1C2CC[C@]2(C)Nc3c(cnn3-c3ccccc3)CC12 (some centres undefined)
inactive: CAKI-1 > 100 µM | CCRF-CEM > 100 µM | DLD-1 > 100 µM | HCC 2998 > 100 µM | HL-60 > 100 µM | IGROV-1 > 100 µM | KM12 > 10 µM | M14 > 100 µM | NCI-H23 > 100 µM | NCI-H460 > 100 µM | OVCAR-8 > 100 µM | SF-539 > 100 µM | SK-MEL-28 > 100 µM | SK-OV-3 > 100 µM | UACC-257 > 100 µM | UACC-62 > 100 µM | UO-31 > 100 µM

[N-]=[N+]=Nc1ccc(S(=O)(=O)Oc2cc(OS(=O)(=O)c3ccc(N=[N+]=[N-])cc3)cc(OS(=O)(=O)c3ccc(N=[N+]=[N-])cc3)c2)cc1
inactive: CAKI-1 > 10 µM | CCRF-CEM > 100 µM | DLD-1 > 100 µM | HCC 2998 > 100 µM | IGROV-1 > 100 µM | KM12 > 100 µM | LOX IMVI > 100 µM | M14 > 100 µM | NCI-H23 > 100 µM | NCI-H460 > 100 µM | OVCAR-8 > 10 µM | SF-539 > 100 µM | SK-MEL-28 > 100 µM | UACC-257 > 100 µM | UACC-62 > 100 µM | UO-31 > 100 µM

COc1nc(C(=O)O)c(Cl)c(OC)c1Cl
inactive: CAKI-1 > 100 µM | CCRF-CEM > 100 µM | DLD-1 > 100 µM | HCC 2998 > 100 µM | HL-60 > 100 µM | IGROV-1 > 100 µM | KM12 > 100 µM | M14 > 100 µM | NCI-H23 > 100 µM | NCI-H460 > 100 µM | OVCAR-8 > 100 µM | SF-539 > 100 µM | SK-MEL-28 > 100 µM | SK-OV-3 > 100 µM | UACC-257 > 100 µM | UACC-62 > 100 µM | UO-31 > 100 µM

COc1ccc(/C=C/C(=O)c2sc(NC(=S)NC(=O)c3ccccc3F)nc2C)cc1OC
inactive: CAKI-1 > 100 µM | CCRF-CEM 35.6 µM | DLD-1 > 100 µM | HCC 2998 > 100 µM | HL-60 46.2 µM | IGROV-1 > 100 µM | KM12 > 100 µM | LOX IMVI > 100 µM | NCI-H23 > 100 µM | NCI-H460 > 100 µM | OVCAR-8 > 100 µM | SF-539 > 100 µM | SK-MEL-28 66.7 µM | SK-OV-3 > 100 µM | UACC-62 85.9 µM | UO-31 37.3 µM

CC1SC2=NC3=C(c4ccccc4C3=O)C(c3ccc(Cl)cc3)N2C1=O (centres undefined)
inactive: CAKI-1 > 100 µM | CCRF-CEM > 100 µM | DLD-1 > 100 µM | HCC 2998 > 100 µM | HL-60 > 100 µM | IGROV-1 > 100 µM | KM12 > 100 µM | M14 > 100 µM | NCI-H23 97.7 µM | NCI-H460 > 100 µM | OVCAR-8 > 100 µM | SK-MEL-28 > 100 µM | SK-OV-3 > 100 µM | UACC-257 > 100 µM | UACC-62 > 100 µM | UO-31 32.8 µM

O=C(Nc1ccccc1[N+](=O)[O-])c1ccccc1
inactive: CAKI-1 > 100 µM | DLD-1 72.3 µM | HCC 2998 > 100 µM | HL-60 > 100 µM | IGROV-1 > 100 µM | KM12 55.5 µM | LOX IMVI 95.9 µM | M14 > 100 µM | NCI-H23 > 100 µM | NCI-H460 > 100 µM | OVCAR-8 > 100 µM | SF-539 > 100 µM | SK-MEL-28 > 100 µM | SK-OV-3 > 100 µM | UACC-257 > 100 µM | UACC-62 > 100 µM | UO-31 61.7 µM

— ChEMBL document CHEMBL1201862, “PubChem BioAssay data set” (2004)
